Where a SMILES comes first, the peptide text is derived from it. The star is where a group is joined. Cbz = O=C(OCc1ccccc1)*; CH2F = FC*

The test system of series [1] is Human fetal neuronal cultures. The experiment in a line: CYTOQUANT blue cell viability, GB-treated neuronal cultures with K channel blockers. Type of series: cell-based. The settings on record: GB 4 nM; CYTOQUANT blue staining, plate reader. On the procedure:
(§1) FIG. 8A-8B Protection against Granzyme B neurotoxicity by Kv1.3 inhibitors. Human fetal neuronal cultures were treated with GB (4 nM) in the presence or absence of various K channel blockers. (FIG. 8A) Cell viability was determined by staining with CYTOQUANT™ blue and the staining was quantitated by a plate reader. […] (FIG. 8B) Cell viability was determined by staining with trypan blue and the % of cells staining were counted which represent dead cells. A minimum of 500 cells was counted in each well and each treatment was done in triplicate.

Series [2] has as its system human fetal neurons. The series can be described thus: Trypan blue uptake neurotoxicity assay in GrB-treated neuronal cultures. It counts as cell-based. On the procedure:
as §1
Human fetal neurons were cultured as previously described (35). Briefly, human fetal brain specimens of 12-17 weeks gestation were obtained in accordance with NIH guidelines. The tissues were then triturated after removing the meninges. Cells were then cultured in T75 flasks in opti-MEM with 5% FBS, 0.5% N2 supplement and 1% antibiotics. Neurons were collected by carefully shaking the flask at least 1 month later. Cells were then seeded at 1×10^5/ml in 96 well plates for 1 week before treatment. These cultures contain 70-80% neurons, <5% microglia and the remaining cells are astrocytes as determined by immunostaining for microtubule associated antigen (MAP-2), CD68 and glial fibrillary acidic protein (GFAP) respectively.
For trypan blue uptake, neuronal cells were seeded at 1×10^5/ml and incubated for 1 week in 96-well plates before treatment. […] The cells were then stained with trypan blue for 5 min, washed with phosphate buffered saline, pH7.4 (PBS) and fixed with 4% paraformaldehyde. Trypan blue positive and negative cells were counted in three pre-determined fields. Approximately 200 cells were counted in each well. Each experiment was done in triplicate wells and mean and SEM were calculated from at least three independent experiments.

Series [3] has as its system Neuronal precursor cells (NPC). The experiment in a line: Neuronal differentiation of NPC (βIII-tubulin / GFAP immunostaining). Type of series: cell-based. The settings on record: MgTX 10 nM for 7 days in differentiating media. On the procedure:
FIG. 11. Kv1.3 specific blocker enhanced neuronal differentiation in NPC. NPC cultures were treated with (FIGS. 11D-11F) or without (FIGS. 11A-11C) Kv1.3 specific blocker MgTX (10 nM) for 7 days in differentiating media. The cells were then fixed in 4% paraformaldehyde and immunostained with mAb against neuron specific βIII-tubulin (FIGS. 11A, 11D) and polyclonal Ab against astrocyte specific GFAP (FIGS. 11B, 11E), followed by fluorescence-conjugated second Abs. The cells were observed and images were taken under confocal microscopy. […] FIGS. 11C and 11F show the merged images.

For series [4], the system named is Neuronal precursor cells (NPC). The experiment in a line: Caspase-3 activation in GrB-treated NPC cultures (Western-blot). The settings on record: for effect on GB-induced caspase-3 activation: GrB 4 nM 24 hours, pretreatment PTX 100 ng/ml, ROCK-I 10 nM or MgTX 10 nM. Type of series: cell-based.
Series [5] concerns the target Kv1.3 channel (voltage-gated potassium channel) on human fetal neurons / neuronal precursor cells (human). The experiment in a line: cell-based or functional assay.
The test system of series [6] is Kv1.3. The experiment in a line: Kv1.3 immunostaining in GB-treated neurons. Type of series: cell-based, human. The settings on record: GB 4 nM, 16 hours. On the procedure: FIG. 7A-7H. Expression of Kv1.3 on neurons and toxicity by Granzyme B. Human fetal neuronal cultures were treated with GB (4 nM; FIGS. 7E-7H) or control with no GB (FIGS. 7A-7D) and immunostained with antisera to beta-tubulin (red; FIGS. 7A and 7E) Kv1.3 (green; FIGS. 7C and 7G) and Hoechst (blue; FIGS. 7B and 7F), 16 hours following treatment. […] FIGS. 7D and 7H show merged images with immunostaining with both antisera and Hoechst.
Expression of voltage gated channel, Kv1.3, in neurons. We discovered that that similar to T cells small basal levels of Kv1.3 channel were expressed on neurons. […] Similar increases in Kv1.3 immunostaining in neurons were also noted upon treatment with supernatants from activated T cells (FIG. 7A-7H).

For series [7], the system named is Primary neurons. The experiment in a line: Calcium imaging (Fura-2/AM) of cytosolic calcium in neurons. Type of series: cell-based. As to the method: FIG. 4-4B. disrupts calcium homeostasis in neurons. Primary neurons were exposed to GrB for 30 min before imaging of intracellular calcium using Fura-2AM. (FIG. 4A). Resting levels of cytosolic calcium were increased by treatment with 1.0-100 nM GrB. (FIG. 4B). SDF-1α (10 μM) evoked increases of cytosolic calcium were increased by pre-treatment of neurons with 10 nM GrB. * P<0.001.
Cytosolic calcium ([Ca^2+]c) was determined using the ratiometric calcium probe Fura-2/AM using methods similar to those previously described (36). Cells were incubated in 2 μM Fura-2/AM for 20 min at 37° C. in media and washed with Locke's Buffer (154 mM NaCl, 3.6 mM NaHCO3, 5.6 mM KCl, 1 mM MgCl2, 5 mM HEPES, 2.3 mM CaCl2, 10 mM glucose; pH 7.4) to remove extracellular Fura-2/AM. Fura-2 loaded cells were placed into a open bath chamber and maintained at 37° C. (Series 20 open perfusion chamber and TC-344B temperature controller; Warner Instruments. Hamden, Conn.). Buffer flowed over the cells at the rate of ˜2 ml/min using a VC-6 perfusion control system with a multi-input manifold that minimized dead space, allowing for a rapid change between buffer and buffer containing drug. Cells were alternatively excited at 340 and 380 nm by a monochrometer and emission was recorded at 510 with software from Intracellular Imaging (Intracellular Imaging Inc., Cincinnati, Ohio.) […] ratios were converted to nM [Ca^2+]c using curve fitting software and calcium reference standards (Molecular Probes).

The subject of series [8] is Human fetal neuron cultures. The series can be described thus: GrB neurotoxicity by caspase-3 activation and nuclear fragmentation. It counts as cell-based. To be noted: recombinant GrB 0.5 to 4 nM. On the procedure: Human fetal neuron cultures on cover slips were treated with GrB (1 nM) for 24 h. Caspase-3 and βIII tubulin expression in neurons was determined by immunocytochemistry. Briefly, cells were fixed with 4% paraformaldehyde for 5 min, and then blocked with 3% FBS in PBS for 20 min. Polyclonal caspase-3 antiserum (1:500) and monoclonal anti-BIII tubulin (1 μg/ml; Promega, Madison. WI) antibody were then applied and cover slips incubated overnight at 4° C. After washing with PBS, the cover slips were incubated with secondary antibodies (1:200 Donkey anti-rabbit IgG Alexa Fluor 594 and anti-mouse IgG Alexa Fluor 488, Molecular Probes, Eugene, Oreg.) for 2 h. Hochest 33258 (10 μM) was added at the last half an hour to stain the nucleus. The cells were imaged by confocal microscopy.
(§2) Recombinant GrB induces toxicity in neurons but not in astroglia. […] We next determined the effect of perform on GrB induced neurotoxicity. We used threshold toxic concentrations of perform (50 ng/ml) for these experiments. […] We next determined if the GrB mediated toxicity could also occur in astrocytes. Human astrocyte cultures were similarly treated with recombinant GrB (dose-1-4 nM) and monitored for neurotoxicity.

The test system of series [9] is Human fetal neuronal cultures. The experiment in a line: Cyclic AMP assay in neuronal cultures. The settings on record: GrB 1 nM, 0-30 min. Type of series: cell-based. On the procedure:
Human fetal neuronal cultures were seeded at 5×10^5/ml in 12 well plates for 1 week before treatment. Cultures were then treated with GrB (1 nM) in Locke's buffer for 0-30 min. After removing the media the cells were treated with 100 μl of 0.1 M HCl for 10 min to achieve cell lysis. The lysate was centrifuged at 600 g for 10 min and the supernatant was used directly for the cyclic AMP assay. Cyclic AMP competitive ELISA kit (ENDOGEN, Rockford, Ill.) was used according to manufacturer's directions.

In series [10] the test system is Human astrocyte cultures. It counts as cell-based. The settings on record: recombinant GrB 1-4 nM. On the procedure: Enriched human fetal astroglia were cultured as previously described. Briefly, human fetal brain specimens of 12-17 weeks gestation were triturated after removal of the meninges. Cells were then cultured in T75 flasks in DMEM with 10% FBS and 1% antibiotics for at least 1 month. After shaking at 180 rpm for 1 h, cells were separated with trypsin/EDTA. Cells were then seeded at 1×10^5/ml in 96 well plates for 1 week before treatment. >95% of these cells were immunostained for GFAP.
as §2

The test system of series [11] is Kv1.3. The series can be described thus: Kv1.3 immunostaining in GrB-treated NPC. Type of series: cell-based. The settings on record: GrB 4 nM, 24 hours. As to the method: FIG. 9A-9H. […] NPC cultures on cover slips were treated with GrB (4 nM; FIGS. 9B, 9D, 9F, and 9H) for 24 hours or controls without GrB (FIGS. 9A, 9C, 9E, and 9G). The cells were then fixed in 4% paraformaldehyde and immunostained with mAb against nestin (FIGS. 9A-9B) and polyclonal Ab against Kv1.3, followed by fluorescence-conjugated secondary Abs (FIGS. 9C-9D). Nuclei were stained with Hoechst 33342 (Calbiochem, 10 μM; FIGS. 9E-9F). The cells were imaged by confocal microscopy. As shown, more than 98% of the cells were positive for nestin and also moderately stained for Kv1.3 in the control cultures.

Where [12] appears, read: agent 10 μM added 1 h prior to GrB, trypan blue uptake 48 h later.

“rTrtyustoxin: non-specific voltage gated K channel blocker (VFINAKCRGSPECLPKCKEAIGKAAGKCMNGKCKCYP)”: the “protection against GB neurotoxicity (cell viability, optical density)” value in series [1] was “protective”.

With MnTMPyP, in [2] (setting [12]), the “blocking of GrB-induced neurotoxicity” value is “significantly blocked the neurotoxicity”.

“margatoxin (TIINVKCTSPKQCLPPCKAQFGQSAGAKCMNGKCKCYPH) [Margotoxin]”: in [2] (GB 4 nM, trypan blue), the “concentration with significant protection against GB toxicity” value lay within 1 to 10 nM and the “protection against GB toxicity (% trypan blue stained cells)” value is reported as “protected against GB toxicity in a dose responsive manner”. For the same molecule, the “neuronal differentiation (βIII-tubulin positive cells and processes)” value in series [3] was “increased the number of βIII-tubulin positive cells and processes per cell”. For the same molecule, the “effect on GB-induced caspase-3 activation” value in series [4] was “attenuated GB-induced caspase-3 activation”.

Take `O=C[C@@H](O)[C@@H](O)[C@H](O)[C@H](O)COP(=O)(O)O` [Mannose-6-phosphate, D-mannose 6-phosphate]: the “inhibition of GrB-induced neurotoxicity” value in series [2] (pretreated with 10 mM mannose-6-phosphate, then GrB 1 nM, trypan blue uptake, 48 h) is “unable to inhibit GrB-induced neurotoxicity”.

In series [5], “margatoxin (MgTX), Kv1.3 specific blocker (from UniProt P40755 1-39) (peptide)” returned a protection of human fetal neurons against GB (4 nM) toxicity, trypan blue staining (% dead cells) of 1 to 10 nM.

As for `Cc1c(C)c2c(c(C)c1O)CCC(C)(C(=O)O)O2` (stereo not drawn) [trolox], the “blocking of GrB-induced neurotoxicity” value in [2] (setting [12]) is listed as “blocked GrB neurotoxicity”.

“GrB: 32-kDa serine protease of lymphocyte granules; recombinant GrB used”: in series [6], the “Kv1.3 channel expression in neurons” value was “increased expression of Kv1.3 channel in a subpopulation of cells”. In series [7] (cultures pre-treated with GrB (10 nM), SDF-1α), the “SDF-1α-evoked ER calcium release, peak increase” value is reported as 1000 nM. In addition, the “resting [Ca2+]c” value in [7] (higher dose of GrB, within 30 min) is listed as “four fold”. Also, in series [7] (lowest concentration tested, 1 nM GrB, within 30 min), the “resting concentration of [Ca2+]c” value is reported as “doubled”. In [8], the “minimum concentration needed to cause significant neurotoxicity” value was 1 nM. Also, the cAMP levels entry in series [9] is “significant decreases at 5 min”. The “cell death in astrocyte cultures” value in series [10] was “No evidence of cell death”. Further, the “caspase-3 activation in NPC” value in series [4] (GrB 4 nM, 24 hours) is “induced caspase-3 activation”. Also, the “Kv1.3 expression in NPC” value in series [11] is on record as “significant increase in Kv1.3 expression”.

Regarding `COC(=O)C[C@H](NC(=O)[C@H](C)NC(=O)[C@@H](NC(=O)OCc1ccccc1)C(C)C)C(=O)CF` [Z-VAD-fmk] (Cbz-Val-Ala-Asp(OMe)-CH2F), the “blocking of GrB-induced neurotoxicity” value in series [2] (setting [12]) was “significantly (P<0.05) blocked”.

Take pertussis toxin: the “blocking of GrB-induced neurotoxicity” value in series [2] (10 μM pertussis toxin, added 1 h prior to GrB, trypan blue uptake, 48 h) is “blocked”. In addition, the “effect on GB-induced caspase-3 activation” value in series [4] is recorded as “attenuated GB-induced caspase-3 activation”.

`CCC(C)(C)C(=O)C(=O)N1CCC[C@H]1C(=O)OCCCc1cccnc1` [GPI-1046, 3-(3-pyridyl)-1-propyl (2S)-1-(3,3-dimethyl-1,2-dioxopentyl)-2-pyrrollidinecarboxylate]: the “blocking of GrB-induced neurotoxicity” value in series [2] (setting [12]) is “blocked GrB neurotoxicity”.

For dendrotoxin, the “protection against GB neurotoxicity (cell viability, optical density)” value in series [1] is “failed to protect against GB neurotoxicity”.

B1: perforin: human perforin, membrane disrupting protein of lymphocyte granules (protein, UniProt P14222 22-555, looked up)
Perforin-1: PCHTAARSECKRSHKFVPGAWLAGEGVDVTSLRRSGSFPVDTQRFLRPDGTCTLCENALQEGTLQRLPLALTNWRAQGSGCQRHVTRAKVSSTEAVARDAARSIRNDWKVGLDVTPKPTSNVHVSVAGSHSQAANFAAQKTHQDQYSFSTDTVECRFYSFHVVHTPPLHPDFKRALGDLPHHFNASTQPAYLRLISNYGTHFIRAVELGGRISALTALRTCELALEGLTDNEVEDCLTVEAQVNIGIHGSISAEAKACEEKKKKHKMTASFHQTYRERHSEVVGGHHTSINDLLFGIQAGPEQYSAWVNSLPGSPGLVDYTLEPLHVLLDSQDPRREALRRALSQYLTDRARWRDCSRPCPPGRQKSPRDPCQCVCHGSAVTTQDCCPRQRGLAQLEVTFIQAWGLWGDWFTATDAYVKLFFGGQELRTSTVWDNNNPIWSVRLDFGDVLLATGGPLRLQVWDQDSGRDDDLLGTCDQAPKSGSHEVRCNLNHGHLKFRYHARCLPHLGGGTCLDYVPQMLLGEPPGNRSGAVW
B1: the “enhancement of GrB neurotoxicity” value in series [2] (perforin 50 ng/ml combined with GrB 1 nM) is given as “enhancement was not statistically significant”.

(Values after patent US20100239562A1, “Kv CHANNELS IN NEURODEGENERATION AND NEUROPROTECTION” (priority 2006, published 2010).)
